Measured values: patent publication US20070197388A1, “Haloperoxidase treatment to control algae” (Buckman Laboratories International, Inc., priority 2006, published 2007)

Legend:
Assay type in all cases: cell-based
[1] = test system: Chlorella sp. (ATCC 7516); test: Evaluation of algaecidal activity (MIC) and checkerboard synergy, Chlorella sp.
Experimental: Evaluation of […] Activity: This test method provides a technique for screening newly synthesized compounds for their effectiveness to inhibit (repress) algae growth. […] Apparatus: Test tubes, 18-150 mm. Sterilized test tubes are required. Incubator, capable of a constant (±2° C.) temperature and light regulation. Reagents and Materials: [table] Inoculum: Cell suspension from a culture grown in modified Allen's medium for 14 days or as needed to attain a desired cell mass of Chlorella sp. (ATCC 7516) or Phormidium faveolarum (UTEX 427). The inoculum is calibrated at 82% transmittance measured at 590 nanometers wavelength before inoculation. Procedure: Medium preparation: Modified Allen's medium (Allen, A. A., 1968). [table] Sterilize the medium in the autoclave for 20 minutes at 15 pounds pressure (121° C.). After autoclaving, cool medium to 45-50° C. and dispense 5 ml of medium per test tube, then add the compound and the inoculum. Compound incorporation: Prepare a stock solution in water of the compound to be tested. The concentration of the stock solution is dependent on the largest dosage desired to be tested. Dilute the stock solution to obtain dosages smaller than that chosen for the stock solution. A maximum amount of 100 microliters of stock solution or the corresponding dilution should be added per test tube. Inoculation: Add 100 microliters of inoculum per test tube, per type of medium and type of inoculum. Incubation: Place the test tubes containing the treatments in an incubator set at 24° C. Light is provided by plant growth fluorescent tubes set to provide 16 h of light and 8 h of darkness. […] The minimum inhibitory concentration (MIC) of the compound is the smallest dosage showing negative algae growth. Synergy Evaluation: Synergy was measured by checkerboards dilutions (Yan and Hancock, 2001), in which one compound is diluted along the rows of test tubes and the other is diluted along the columns. This method focuses on looking for a reduction in the MIC of each component in the presence of the other.

[2] = test system: Enterobacter aerogenes (ATCC 13048); test: Evaluation of bactericidal activity (MIC, >=90% kill) and checkerboard synergy, Enterobacter aerogenes; settings: Klebsiella aerogenes, ATCC13048; alone; system with 2 ppm a.i. Hydrogen Peroxide; 18 hours at 37° C.; read-out: MICA = MIC of Dichloramine B
Experimental: (§1) Synergy Evaluation: Synergy was measured by checkerboards dilutions (Yan and Hancock, 2001), in which one compound is diluted along the rows of test tubes and the other is diluted along the columns. This method focuses on looking for a reduction in the MIC of each component in the presence of the other. The result is expressed as the Fractional Inhibitory Concentration Index (FIC), calculated as follows: FIC=[A]/MICA+[B]/MICB where, • MICA and MICB=MICs of the compounds A and B alone • [A] and [B]=MICs of the compounds A and B when in combination.
Evaluation of Bactericidal Activity: This method is suitable for use in evaluating the antibacterial properties of chemicals by determining their MIC value. The MIC value represents the Minimum Inhibitory Concentration defined as the lowest level of compound required to achieve a ≧90% kill of a given organism.
Equipment • 1. Test tubes, 18×150 mm disposable culture tubes sterile • 2. Sterile 1 ml and 10 ml pipettes • 3. Incubator capable of maintaining a temperature of 37° C.±1° C. • 4. Autoclave • 5. pH meter • 6. […]
Rating of tubes via plate count method: The Pour Plate Count agar was prepared as described in Standard Methods (American Public Health Association; 1995). […] Colonies formed in or on the plate count medium within 48±2 h were counted as described in Standard Methods, and the results were reported as CFU/milliliter. […]

[3] = test system: Phormidium faveolarum (UTEX 427); test: Evaluation of algaecidal activity (MIC) and checkerboard synergy, Phormidium faveolarum; settings: alone, system with 1 ppm a.i. Hydrogen Peroxide, 14 days at 24° C.
Experimental: Evaluation of Algaecidal Activity: This test method provides a technique for screening newly synthesized compounds for their effectiveness to inhibit (repress) algae growth.
Apparatus: Test tubes, 18-150 mm. Sterilized test tubes are required.
Incubator, capable of a constant (±2° C.) temperature and light regulation.
Inoculum: Cell suspension from a culture grown in modified Allen's medium for 14 days or as needed to attain a desired cell mass of Chlorella sp. (ATCC 7516) or Phormidium faveolarum (UTEX 427). The inoculum is calibrated at 82% transmittance measured at 590 nanometers wavelength before inoculation.
Procedure: Medium preparation: Modified Allen's medium (Allen, A. A., 1968).
Sterilize the medium in the autoclave for 20 minutes at 15 pounds pressure (121° C.). After autoclaving, cool medium to 45-50° C. and dispense 5 ml of medium per test tube, then add the compound and the inoculum. […]
as §1, with “This method focuses on looking for a reduction in the MIC of each component in the presence of the other.” left out

[4] = alone, system with 1 ppm a.i. Hydrogen Peroxide, 14 days at 24° C.

O=S(=O)(c1ccccc1)N(Cl)Cl [Dichloramine B, N,N-dichlorobenzenesulfonamide]
MIC Dichloramine B combined with Haloperoxidase and Hydrogen Peroxide ([1]; combined with 1 ppm product of Haloperoxidase (Novozyme) and 2 ppm a.i. Hydrogen Peroxide, 14 days at 24° C.): < 0.07 ppm a.i. | MIC [2]: 5 µg/mL

CCCCCCCCCCCCCCCC[N+](C)(C)CC.[Br-] [EHDB, Ethyl-n-Hexadecyl Dimethylammonium Bromide]
MICA = MIC of EHDB [1, 4]: 0.5 MICA mg a.i./l | MIC ([3]; 336 h, read-out: MICA = MIC of EHDB): 0.5 µg/mL

Benzalkonium Chloride [reference compound]
dosage controlling algae growth ([1]; Example 7, reinoculated only after 14 days, incubated 14 days (result not shown)): 2 ppm a.i. | MICA = MIC of Benzalkonium Chloride ([1]; alone, reinoculated after 14 days and treated with 1 ppm of hydrogen peroxide, incubated 14 days): 2 MICA mg a.i./l | MICA = MIC of Benzalkonium Chloride [1, 4]: 1 MICA mg a.i./l | MICA = MIC of Benzalkonium Chloride [3]: 2 MICA mg a.i./l

B1: Myeloperoxidase: a myeloperoxidase enzyme obtained from Biodesign International (protein, UniProt P05164 165-745, looked up)
Myeloperoxidase: VTCPEQDKYRTITGMCNNRRSPTLGASNRAFVRWLPAEYEDGFSLPYGWTPGVKRNGFPVALARAVSNEIVRFPTDQLTPDQERSLMFMQWGQLLDHDLDFTPEPAARASFVTGVNCETSCVQQPPCFPLKIPPNDPRIKNQADCIPFFRSCPACPGSNITIRNQINALTSFVDASMVYGSEEPLARNLRNMSNQLGLLAVNQRFQDNGRALLPFDNLHDDPCLLTNRSARIPCFLAGDTRSSEMPELTSMHTLLLREHNRLATELKSLNPRWDGERLYQEARKIVGAMVQIITYRDYLPLVLGPTAMRKYLPTYRSYNDSVDPRIANVFTNAFRYGHTLIQPFMFRLDNRYQPMEPNPRVPLSRVFFASWRVVLEGGIDPILRGLMATPAKLNRQNQIAVDEIRERLFEQVMRIGLDLPALNMQRSRDHGLPGYNAWRRFCGLPQPETVGQLGTVLRNLKLARKLMEQYGTPNNIDIWMGGVSEPLKRKGRVGPLLACIIGTQFRKLRDGDRFWWENEGVFSMQQRQALAQISLPRIICDNTGITTVSKNNIFMSNSYPRDFVNCSTLPALNLASWREAS
MIC (ppm product) ([1]; 2 ppm a.i. hydrogen peroxide as substrate, 4 ppm a.i. ammonium bromide as electron donor): <0.1 ppm product
